# Test results: patent publication US9951065B2 (Gilead Sciences, Inc., priority 2015, dated 2018)
# Target: T1, IDO1 (Homo sapiens, UniProt P14902)
# T1 construct: HeLa cells were treated with a test compound in the presence of IFNγ, which induces IDO1 expression; host or cells: H1-HeLa cells, IDO1 induced with IFNγ
# Assay: Cell-based (HeLa) assay for measurement of IDO1 inhibition (kynurenine levels in supernatant after IFNγ induction)
# Conditions: HeLa cells, IFNγ-induced IDO1, kynurenine in supernatant after 48 hour incubation; geometric mean of a minimum of four determinations
# Procedure, shortened: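 HeLa cells, 1,250 per well, treated with compound (0.5% DMSO final) plus IFNγ to induce IDO1, for 48 h. Supernatant kynurenine measured by TCA hydrolysis at 60 °C, then p-dimethylaminobenzaldehyde, absorbance 480 nm. EC50 from a four-parameter fit normalized to −/+IFNγ controls; geometric mean of at least four runs.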
# T1 sequence (P14902 whole entry): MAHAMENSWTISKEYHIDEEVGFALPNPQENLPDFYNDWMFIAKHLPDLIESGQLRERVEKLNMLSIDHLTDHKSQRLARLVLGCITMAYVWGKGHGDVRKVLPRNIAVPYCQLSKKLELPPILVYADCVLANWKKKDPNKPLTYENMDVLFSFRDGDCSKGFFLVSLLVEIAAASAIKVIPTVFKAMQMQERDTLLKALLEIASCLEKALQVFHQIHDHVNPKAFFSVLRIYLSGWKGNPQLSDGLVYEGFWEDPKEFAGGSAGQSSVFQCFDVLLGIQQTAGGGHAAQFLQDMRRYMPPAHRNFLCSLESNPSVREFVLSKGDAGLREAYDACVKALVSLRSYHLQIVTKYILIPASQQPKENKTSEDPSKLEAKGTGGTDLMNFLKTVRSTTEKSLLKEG
row,Compound,EC50 [nM]
1,"O/N=C(\Nc1cccc(Cl)c1)c1ccnc2nc[nH]c12 [Example 82, N-(3-Chlorophenyl)-N′-hydroxy-1H-imidazo[4,5-b]pyridine-7-carboximidamide]",160
2,"CCC#Cc1cc(N/C(=N\O)c2ccnc3nc[nH]c23)ccc1F [Example 78, N-(3-(But-1-yn-1-yl)-4-fluorophenyl)-N′-hydroxy-1H-imidazo[4,5-b]pyridine-7-carboximidamide]",2640
3,"CN(C)CCc1nc2c(/C(=N/O)Nc3ccc(F)c(Cl)c3)cc(F)c(F)c2[nH]1 [Example 53, N-(3-Chloro-4-fluorophenyl)-2-(2-(dimethylamino)ethyl)-6,7-difluoro-N′-hydroxy-1H-benzo[d]imidazole-4-carboximidamide]",916
4,"CC(C)(CO)CNCc1nc2nccc(/C(=N/O)Nc3ccc(F)c(Cl)c3)c2[nH]1 [Example 143, N-(3-Chloro-4-fluorophenyl)-N′-hydroxy-2-(((3-hydroxy-2,2-dimethylpropyl)amino)methyl)-1H-imidazo[4,5-b]pyridine-7-carboximidamide]",7350
5,"CCN(CC)CCNc1nc2c(F)c(F)cc(/C(=N/O)Nc3ccc(F)c(Cl)c3)c2[nH]1 [Example 42, N-(3-Chloro-4-fluorophenyl)-2-((2-(diethylamino)ethyl)amino)-4,5-difluoro-N′-hydroxy-1H-benzo[d]imidazole-7-carboximidamide]",247
6,"O/N=C(\Nc1ccc(F)c(Cl)c1)c1ccnc2nc(C(O)c3ccccc3)[nH]c12 (stereo not drawn) [Example 173, N-(3-Chloro-4-fluorophenyl)-N′-hydroxy-2-(hydroxy(phenyl)methyl)-1H-imidazo[4,5-b]pyridine-7-carboximidamide]",9700
7,"ON=C(Nc1ccc(F)c(Cl)c1)c1ccnc2nc(NCCN3CCC(F)(F)CC3)[nH]c12 [Example 214, N-(3-chloro-4-fluorophenyl)-2-((2-(4,4-difluoropiperidin-1-yl)ethyl)amino)-N′-hydroxy-1H-imidazo[4,5-b]pyridine-7-carboximidamide]",1910
8,"O/N=C(\Nc1ccc(F)c(Cl)c1)c1ccnc2nc(NCCN3CCCCC3)[nH]c12 [Example 222, N-(3-chloro-4-fluorophenyl)-N′-hydroxy-2-((2-(piperidin-1-yl)ethyl)amino)-1H-imidazo[4,5-b]pyridine-7-carboximidamide]",1520
9,"O/N=C(\Nc1ccc2occc2c1)c1ccnc2nc[nH]c12 [Example 70, N-(benzofuran-5-yl)-N′-hydroxy-1H-imidazo[4,5-b]pyridine-7-carboximidamide]",1480
10,"COc1ccccc1CNCc1nc2nccc(/C(=N/O)Nc3ccc(F)c(Cl)c3)c2[nH]1 [Example 123, N-(3-Chloro-4-fluorophenyl)-N′-hydroxy-2-(((2-methoxybenzyl)amino)methyl)-1H-imidazo[4,5-b]pyridine-7-carboximidamide]",1910
11,"O/N=C(\Nc1ccc(F)c(Cl)c1)c1ccnc2nc(C(O)C(F)(F)F)[nH]c12 (stereo not drawn) [Example 176, N-(3-Chloro-4-fluorophenyl)-N′-hydroxy-2-(2,2,2-trifluoro-1-hydroxyethyl)-1H-imidazo[4,5-b]pyridine-7-carboximidamide]",4200
12,"O/N=C(\Nc1ccc(OC(F)(F)F)cc1)c1ccnc2nc[nH]c12 [Example 66, N′-Hydroxy-N-(4-(trifluoromethoxy)phenyl)-1H-imidazo[4,5-b]pyridine-7-carboximidamide]",4870
13,"O/N=C(\Nc1ccc(F)c(Cl)c1)c1ccnc2nc[nH]c12 [Example 59, N-(3-Chloro-4-fluorophenyl)-N′-hydroxy-1H-imidazo[4,5-b]pyridine-7-carboximidamide]",208
14,"C#Cc1cc(N/C(=N\O)c2ccnc3nc[nH]c23)ccc1F [Example 97, N-(3-ethynyl-4-fluorophenyl)-N′-hydroxy-1H-imidazo[4,5-b]pyridine-7-carboximidamide]",380
15,"O/N=C(\Nc1ccc(F)c(Cl)c1)c1ccnc2nc(-c3ccc[nH]3)[nH]c12 [Example 148, N-(3-Chloro-4-fluorophenyl)-N′-hydroxy-2-(1H-pyrrol-2-yl)-1H-imidazo[4,5-b]pyridine-7-carboximidamide]",2230
16,"O/N=C(\Nc1ccc2ccoc2c1)c1ccnc2nc[nH]c12 [Example 68, N-(Benzofuran-6-yl)-N′-hydroxy-1H-imidazo[4,5-b]pyridine-7-carboximidamide]",890
17,"CN(CCc1nc2nccc(/C(=N/O)Nc3ccc(F)c(Cl)c3)c2[nH]1)CC(F)F [Example 187, N-(3-Chloro-4-fluorophenyl)-2-(2-((2,2-difluoroethyl)(methyl)amino)ethyl)-N′-hydroxy-1H-imidazo[4,5-b]pyridine-7-carboximidamide]",3400
18,"O/N=C(\Nc1cc(Cl)ccc1F)c1ccnc2nc[nH]c12 [Example 60, N-(5-Chloro-2-fluorophenyl)-N′-hydroxy-1H-imidazo[4,5-b]pyridine-7-carboximidamide]",322
19,"O/N=C(\Nc1ccc(F)c(Cl)c1)c1c(F)ccc2nc[nH]c12 [Example 3, N-(3-Chloro-4-fluorophenyl)-6-fluoro-N′-hydroxy-1H-benzo[d]imidazole-7-carboximidamide]",4800
20,"CNc1nc2nccc(/C(=N/O)Nc3ccc(F)c(Br)c3)c2[nH]1 [Example 257, N-(3-bromo-4-fluorophenyl)-N′-hydroxy-2-(methylamino)-1H-imidazo[4,5-b]pyridine-7-carboximidamide]",241

# Results, then the compound that gave them:
row,EC50 [nM],Compound
1,1290,"CNCc1nc2c(F)ccc(/C(=N/O)Nc3ccc(F)c(Cl)c3)c2[nH]1 [Example 290, N-(3-chloro-4-fluorophenyl)-4-fluoro-N′-hydroxy-2-((methylamino)methyl)-1H-benzo[d]imidazole-7-carboximidamide]"
2,9560,"NS(=O)(=O)CCNc1nc2c(F)c(F)cc(/C(=N/O)Nc3ccc(F)c(Cl)c3)c2[nH]1 [Example 298, N-(3-chloro-4-fluorophenyl)-4,5-difluoro-N′-hydroxy-2-((2-sulfamoylethyl)amino)-1H-benzo[d]imidazole-7-carboximidamide]"
3,3000,"CC(O)CNc1nc2c(F)c(F)cc(/C(=N/O)Nc3ccc(F)c(Cl)c3)c2[nH]1 (stereo not drawn) [Example 293, N-(3-chloro-4-fluorophenyl)-4,5-difluoro-N′-hydroxy-2-((2-hydroxypropyl)amino)-1H-benzo[d]imidazole-7-carboximidamide]"

# Same assay, conditions: HeLa cells, IFNγ-induced IDO1, kynurenine in supernatant, 48 hour incubation; geometric mean of a minimum of four determinations
row,EC50 [nM],Compound
1,692,"O/N=C(\Nc1cccc(Br)c1)c1cc(F)c(F)c2nc(NCCN3CCCC3)[nH]c12 [Example 331, N-(3-bromophenyl)-4,5-difluoro-N′-hydroxy-2-((2-(pyrrolidin-1-yl)ethyl)amino)-1H-benzo[d]imidazole-7-carboximidamide]"
2,736,"Nc1nc2cc(F)cc(/C(=N/O)Nc3ccc(F)c(Br)c3)c2[nH]1 [Example 373, 2-amino-N-(3-bromo-4-fluorophenyl)-5-fluoro-N′-hydroxy-1H-benzo[d]imidazole-7-carboximidamide]"
3,1950,"O/N=C(\Nc1ccc(F)c(Cl)c1)c1cc(F)c(F)c2nc(N[C@H]3CCCNC3)[nH]c12 [Example 445, (S)—N-(3-chloro-4-fluorophenyl)-4,5-difluoro-N′-hydroxy-2-(piperidin-3-ylamino)-1H-benzo[d]imidazole-7-carboximidamide]"
4,193,"CN1CCC[C@@H](Nc2nc3c(F)c(F)cc(/C(=N/O)Nc4cccc(Cl)c4)c3[nH]2)C1 [Example 460, (R)—N-(3-chlorophenyl)-4,5-difluoro-N′-hydroxy-2-((1-methylpiperidin-3-yl)amino)-1H-benzo[d]imidazole-7-carboximidamide]"
5,555,"CN(CCNc1nc2c(F)c(F)cc(/C(=N/O)Nc3ccc(F)c(Cl)c3)c2[nH]1)CC1CC1 [Example 398, N-(3-chloro-4-fluorophenyl)-2-((2-((cyclopropylmethyl)(methyl)amino)ethyl)amino)-4,5-difluoro-N′-hydroxy-1H-benzo[d]imidazole-7-carboximidamide]"
6,376,"CC(C)N1CCCC(Nc2nc3c(F)c(F)cc(C(=NO)Nc4ccc(F)c(Cl)c4)c3[nH]2)C1 (stereo not drawn) [Example 455, N-(3-chloro-4-fluorophenyl)-4,5-difluoro-N′-hydroxy-2-((1-isopropylpiperidin-3-yl)amino)-1H-benzo[d]imidazole-7-carboximidamide]"
7,580,"CN(C)CCCNc1nc2c(F)c(F)cc(/C(=N/O)Nc3cccc(Cl)c3)c2[nH]1 [Example 385, N-(3-chlorophenyl)-2-((3-(dimethylamino)propyl)amino)-4,5-difluoro-N′-hydroxy-1H-benzo[d]imidazole-7-carboximidamide]"
8,389,"CN1CCCC(Nc2nc3c(F)c(F)cc(/C(=N/O)Nc4ccc(F)c(Cl)c4)c3[nH]2)C1 (stereo not drawn) [Example 443, N-(3-chloro-4-fluorophenyl)-4,5-difluoro-N′-hydroxy-2-((1-methylpiperidin-3-yl)amino)-1H-benzo[d]imidazole-7-carboximidamide]"
9,7210,"CS(=O)(=O)CCNc1nc2nccc(/C(=N/O)Nc3ccc(F)c(Cl)c3)c2[nH]1 [Example 493, N-(3-chloro-4-fluorophenyl)-N′-hydroxy-2-((2-(methylsulfonyl)ethyl)amino)-1H-imidazo[4,5-b]pyridine-7-carboximidamide]"
10,1070,"Cc1nnc(CNc2nc3nccc(/C(=N/O)Nc4ccc(F)c(Cl)c4)c3[nH]2)o1 [Example 427, N-(3-chloro-4-fluorophenyl)-N′-hydroxy-2-(((5-methyl-1,3,4-oxadiazol-2-yl)methyl)amino)-1H-imidazo[4,5-b]pyridine-7-carboximidamide]"
